Reference: publication PMC7556816, “Structural and mechanistic analysis of ATPase inhibitors targeting mycobacterial DNA gyrase” (Journal of Antimicrobial Chemotherapy, 2020)

Test system: M. tuberculosis gyrase, GyrB Arg141 mutants
Type: biochemical, Mycobacterium tuberculosis

| Structure (SMILES) | inhibition of supercoiling of Arg141 mutant gyrase |
| --- | --- |
| CO[C@@H]1[C@@H](OC(N)=O)[C@@H](O)[C@H](Oc2ccc3c(O)c(NC(=O)c4ccc(O)c(CC=C(C)C)c4)c(=O)oc3c2C)OC1(C)C [novobiocin, reference compound] | at least partially inhibited |
| CNc1cc(F)cc2c1[nH]c1nc(Oc3cnc(C)nc3)nc(N3C[C@@H]4[C@@H](N)[C@@H]4C3)c12 [Redx03863] | susceptible to inhibition |
